{"source": "paper PMC10047683", "about": "“A Novel Family of Lysosomotropic Tetracyclic Compounds for Treating Leukemia” (Cancers, 2023)", "key": {"[1]": {"tested_on": "peripheral blood mononuclear cells from healthy donors' buffy coats", "experiment": "Cytotoxicity in healthy donor blood cells", "type": "cell-based, human", "conditions": "72 h", "description": "Primary AML samples were obtained at diagnosis from patients diagnosed at Hospital Clínic of Barcelona (Spain) and Hospital Germans Trias i Pujol (Badalona, Spain). AML diagnosis, classification, and risk stratification were based on the latest revised WHO criteria (Supplementary Table S1). Clinical characteristics of AML patients are summarized in Supplementary Table S1. Mononuclear cells (MNCs) were isolated with Ficoll density gradient centrifugation (GE Healthcare, Chicago, IL, USA). All patients provided their written informed consent in accordance with the Declaration of Helsinki, and the study was approved by the corresponding ethics committees. Mature blood MNCs were isolated from healthy donors’ buffy coats provided by Banc de Sang i Teixits (BSiT, Barcelona, Spain). Umbilical-cord blood was provided by BSiT, and MNCs were depleted for lineage marker-positive cells using magnetic separation with the Human Lineage Cell Depletion kit (Miltenyi Biotec, North Rhine-Westphalia, Germany) following the manufacturer’s recommendations.\n(§1) First, 2 × 10^5 (72 h assays in cell lines (Supplementary File S1)), 3 × 10^5 (48 h assays in cell lines) or 7.5 × 10^5 (primary AML, healthy donor buffy coats) cells per mL were cultured in 96-well plates, and all drugs were added at the indicated concentrations. In α-tocopherol experiments, cells were treated with growing concentrations of α-tocopherol and EDK drugs for 48 h. In the NAC and 3MA experiments, treatment was simultaneous with EDK compounds. In glucose deprivation experiments, cells were cultivated with a standard medium (glucose high, 2 g/L), a standard medium without glucose, or a standard medium with galactose (2 g/L) and without glucose. Cell viability was measured via 7-AAD (eBioscience) exclusion and Hoechst33342 (Sigma-Aldrich, St. Louis, MO, USA) positivity staining via flow cytometry, and the cell count was obtained through volume. In the experiments with the primary cells, analyses were performed inside the blast population as detected via blast gates (CD45^low SSC^int). For solid tumor cell lines, viability was analyzed using CellTiter-Glo® Luminescent Cell Viability Assay (Promega)."}, "KG-1": {"tested_on": "KG-1", "experiment": "7AAD and annexin-V staining, flow cytometry", "type": "cell-based", "conditions": "10 µM, 24 h, representative plot", "method": "(§2) Seahorse studies were performed using the Agilent Seahorse XF Real-Time ATP Rate Assay Kit. Briefly, MonoMac1 and HL60 cells were suspended in complete medium at a concentration of 5 × 10^5 cells per ml and treated with EDK-87/EDK-88 with the indicated compounds for 18 h. Cells were washed and suspended in Seahorse medium (Seahorse XF medium with 2 mM glutamine, 10 mM glucose, 2 mM pyruvate) at a concentration of 1.4 × 10^6 (Mono Mac1) and 2.4 × 10^6 (HL60) cells per mL; 50 μL per well were seeded in 96-well Seahorse plates precoated with polylysine, centrifuged, and left to adhere for 20 min at 37 °C before adding prewarmed Seahorse medium to a final volume of 180 μL per well. Basal OCR and ECAR were measured, and the ATP rate assay was performed with the sequential injection of 1.5 μM oligomycin and 0.5 μM rotenone/antimycin A. A detailed description of this protocol was provided by the manufacturers. Mitochondrial ROS was quantified using the MitoSOX Red Mitochondrial Superoxide Indicator (Thermo Fischer Scientific, Waltham, MA, USA), as previously described. The activation of executive caspases was determined using CaspaseGlo® 3/7 Assay (Promega), following the manufacturer’s recommendations. The detection of Annexin-V staining was also described previously."}, "MonoMac-1": {"tested_on": "MonoMac-1", "experiment": "7AAD and annexin-V staining, flow cytometry", "type": "cell-based", "conditions": "10 µM, 24 h, representative plot", "method": "as §2"}, "ADME-Tox: solubility": {"experiment": "ADME-Tox: solubility", "type": "physicochemical", "method": "All ADMET studies were performed in Eurofins Discovery Services (CEREP laboratories, Celle-Lévescault France). The pharmacokinetic studies were performed in Draconis Pharma SL (Barcelona, Spain) in CD-1 mice treated with 30 mg/kg EDK87 or EDK88 via SC or OG. Blood was collected by cardiac puncture at 0.5, 1, 2, 4, or 24 h."}, "MonoMac1": {"tested_on": "MonoMac1", "experiment": "Dose-response viability curves in AML cell lines", "type": "cell-based", "conditions": "Mono-Mac-1, 48 h", "method": "as §1"}, "U937": {"tested_on": "U937", "experiment": "Dose-response viability curves in AML cell lines", "type": "cell-based", "conditions": "Homo sapiens, U-937, 48 h", "method": "as §1"}, "Kasumi-1": {"tested_on": "Kasumi-1", "experiment": "Dose-response viability curves in AML cell lines", "type": "cell-based", "conditions": "Homo sapiens, 48 h", "method": "as §1"}, "KG1": {"tested_on": "KG1", "experiment": "Dose-response viability curves in AML cell lines", "type": "cell-based", "conditions": "Homo sapiens, KG-1, 48 h", "method": "as §1"}, "THP1": {"tested_on": "THP1", "experiment": "Dose-response viability curves in AML cell lines", "type": "cell-based", "conditions": "Homo sapiens, THP-1, 48 h", "method": "as §1"}, "HL60": {"tested_on": "HL60", "experiment": "Dose-response viability curves in AML cell lines", "type": "cell-based", "conditions": "Homo sapiens, HL-60, 48 h", "method": "as §1"}, "SKM-1": {"tested_on": "SKM-1", "experiment": "Dose-response viability curves in AML cell lines", "type": "cell-based", "conditions": "Homo sapiens, 48 h", "method": "as §1"}}}
{"molecule": "CN1CCC(=C2c3ccccc3-c3c2sc2ccccc32)CC1", "note": "[EDK-87]", "values": [{"measurement": "healthy-donor blood cells affected", "setting": "[1]; 9 healthy donors, EDK-87 10 and 25 µM, EDK-88 5 and 10 µM assayed", "result": "33.2% ± 8.1"}, {"measurement": "# Live cells refer to control", "setting": "[1]; BC sample #20, 5 µM", "result": 140, "unit": "%"}, {"measurement": "# Live cells refer to control", "setting": "[1]; BC sample #20, 10 µM", "result": 113, "unit": "%"}, {"measurement": "# Live cells refer to control", "setting": "[1]; BC sample #26, 5 µM", "result": 78, "unit": "%"}, {"measurement": "# Live cells refer to control", "setting": "[1]; BC sample #26, 10 µM", "result": 65, "unit": "%"}, {"measurement": "# Live cells refer to control", "setting": "[1]; BC sample #31, 5 µM", "result": 83, "unit": "%"}, {"measurement": "# Live cells refer to control", "setting": "[1]; BC sample #31, 10 µM", "result": 56, "unit": "%"}, {"measurement": "# Live cells refer to control", "setting": "[1]; BC sample #32, 5 µM", "result": 81, "unit": "%"}, {"measurement": "# Live cells refer to control", "setting": "[1]; BC sample #32, 10 µM", "result": 41, "unit": "%"}, {"measurement": "# Live cells refer to control", "setting": "[1]; BC sample #32, 25 µM", "result": 72, "unit": "%"}, {"measurement": "# Live cells refer to control", "setting": "[1]; BC sample #41, 5 µM", "result": 77, "unit": "%"}, {"measurement": "# Live cells refer to control", "setting": "[1]; BC sample #41, 10 µM", "result": 87, "unit": "%"}, {"measurement": "# Live cells refer to control", "setting": "[1]; BC sample #44, 5 µM", "result": 74, "unit": "%"}, {"measurement": "# Live cells refer to control", "setting": "[1]; BC sample #44, 10 µM", "result": 76, "unit": "%"}, {"measurement": "# Live cells refer to control", "setting": "[1]; BC sample #44, 25 µM", "result": 80, "unit": "%"}, {"measurement": "# Live cells refer to control", "setting": "[1]; BC sample #51, 5 µM", "result": 101, "unit": "%"}, {"measurement": "# Live cells refer to control", "setting": "[1]; BC sample #51, 10 µM", "result": 77, "unit": "%"}, {"measurement": "# Live cells refer to control", "setting": "[1]; BC sample #59, 5 µM", "result": 89, "unit": "%"}, {"measurement": "# Live cells refer to control", "setting": "[1]; BC sample #59, 10 µM", "result": 41, "unit": "%"}, {"measurement": "# Live cells refer to control", "setting": "[1]; BC sample #59, 25 µM", "result": 13, "unit": "%"}, {"measurement": "# Live cells refer to control", "setting": "[1]; BC sample #63, 5 µM", "result": 92, "unit": "%"}, {"measurement": "# Live cells refer to control", "setting": "[1]; BC sample #63, 10 µM", "result": 45, "unit": "%"}, {"measurement": "# Live cells refer to control", "setting": "[1]; BC sample #63, 25 µM", "result": 22, "unit": "%"}, {"measurement": "Q1 of 7AAD/annexin V plot", "setting": "KG-1", "result": 0.61}, {"measurement": "Q2 of 7AAD/annexin V plot", "setting": "KG-1", "result": 10.0}, {"measurement": "Q3 of 7AAD/annexin V plot", "setting": "KG-1", "result": 50.3}, {"measurement": "Q4 of 7AAD/annexin V plot", "setting": "KG-1", "result": 39.1}, {"measurement": "Q1 of 7AAD/annexin V plot", "setting": "MonoMac-1", "result": 2.96}, {"measurement": "Q2 of 7AAD/annexin V plot", "setting": "MonoMac-1", "result": 9.41}, {"measurement": "Q3 of 7AAD/annexin V plot", "setting": "MonoMac-1", "result": 21.7}, {"measurement": "Q4 of 7AAD/annexin V plot", "setting": "MonoMac-1", "result": 65.9}, {"measurement": "solubility as compared to EDK-88", "setting": "ADME-Tox: solubility", "result": "lower"}, {"measurement": "EC50", "setting": "MonoMac1", "result": "8.6 ± 1.4", "unit": "µM"}, {"measurement": "EC50", "setting": "U937", "result": "6.9 ± 0.07", "unit": "µM"}, {"measurement": "EC50", "setting": "Kasumi-1", "result": "6.3 ± 0.35", "unit": "µM"}, {"measurement": "EC50", "setting": "KG1", "result": "7 ± 1.2", "unit": "µM"}, {"measurement": "EC50", "setting": "THP1", "result": "11.2 ± 0.01", "unit": "µM"}, {"measurement": "EC50", "setting": "HL60", "result": "6.2 ± 0.9", "unit": "µM"}, {"measurement": "EC50", "setting": "SKM-1", "result": "8.1 ± 1.8", "unit": "µM"}]}
